# Results reported in patent US20220016080A1, “COMPOUNDS THAT SELECTIVELY AND EFFECTIVELY INHIBIT HAKAI-MEDIATED UBIQUITINATION, AS ANTI-CANCER DRUGS” (FUNDACIÓN PROFESOR NOVOA SANTOS, priority 2018, published 2022).
# Columns and labels:
# [1] = tested on: HT-29 colon tumour cell line; test: MTT cell viability assay, HT29; type: cell-based; conditions: 72 h, analogues at 50-500 μM
# Description: For cytotoxicity assays, 1×10^4 cells were seeded per well into a 96-well plate. After 24 h cells were treated with the indicated inhibitors for 72 h and a MTT colorimetric cell viability assay was performed following manufacturer's instructions (Sigma Aldrich, St Louis, Mo.). Absorbance was measured at 570 and 630 nm using a Multiskan Plus Reader (Nanoquant Infinite M200 Tecan Trading AG, Switzerland). Dose-response curves were designed with Graph Pad Prism Software and the half-maximal inhibitory concentration (IC50) values were calculated. Represented data are the mean±SEM of at least three independent experiments with six replicates per condition.
# [2] = tested on: Hakai-MDCK xenograft tumours; test: Tumour xenograft model (Hakai-MDCK cells in nude mice); type: in vivo, athymic nu/nu mice
# Description: Xenografts experiments were performed in Experimental Surgery Unit—Technological Training Center from INIBIC in compliance with the European Community Law (86/609/EEC) and the Spanish law (R.D. 53/2013). The experiment was approved by the Ethics Committee for Animal Experimentation of Xerencia de Xestion Integrada da Coruna (XXIAC). Mice were in a 12/12 hours light/dark cycle with water and food available ad libitum. Six weeks old athymic nu/nu mice were randomly distributed in groups. One million of MDCK cells, resuspended in DMEM without serum and antibiotic, were subcutaneously inoculated in both flanks in two groups of 3 animals. The same number of Hakai-MDCK cells were injected in two groups of 4 animals. Twenty days after inoculation tumours in Hakai-MDCK were palpable. Then, half of the animals were treated with Hakin-1 (5 mg/kg) and the other half with the same concentration of DMSO every 3 days. Tumour outgrowth was monitored twice a week taking measurements of tumour length (L) and width (W) with an electronic calipter. Tumour volume was calculated as pLW2/6. Forty days after inoculation, animals were sacrificed. Tumours, lungs, kidneys and livers were collected and fixed in 4% PFA and embedded in paraffin blocks for histology and/or immunohistochemistry (IHC) analyses.
# Tumours and tissues were deparaffinised, rehydrated and stained with haematoxylin and eosin (H&E) as previously described. Tumour sections (4 μm) were also deparaffinised and hydrated for immunohistochemistry. Antigen retrieval was carried by heating the samples (2100 Retriever; PickCell Laboratories) in citrate buffer (Dako REAL, Denmark) or in EDTA buffer. Then, endogenous peroxidase activity was blocked with peroxidase blocking (DakoCytomation, Denmark). Samples were blocked and permeabilized with 0.2% BSA and 0.1% Tx-100 for 1 hour and incubated with the indicated primary antibodies overnight at 4° C. in a wet chamber. Slides were incubated for 1 hour at room temperature with the secondary antibody and detection was carried our using DAB (DakoReal Envision kit) according to manufacturer instructions. Finally, nuclei were counterstained with Gill's Hematoxylin and mounted with DePeX. Pictures were taken with an Olympus microscope. Quantification of images was performed taken 5 photographs of each animal with Image J programme and the represented results are shown as mean±SEM. The number of mitosis was counted in sections stained with H&E. In this case, ten pictures of each tumour were taken with an Olympus BX50 microscope (objective 40×) and the number of mitosis was counted manually. Results are represented as mean±SEM and a representative photograph is shown for each condition. […]
# Tissue sections from tumours were deparaffinised and rehydrated using standard protocols. The slides were rinsed twice with PBS and treated with citrate buffer buffer (Dako REAL, Denmark) in microwave at 350 W for 5 min. The tissue sections were then analysed with an in situ Cell Death Detection Kit, Fluorescein (Roche) following the manufacturer's instructions. Then, slides were incubated with Hoechst for 5 min in darkness. The reaction was visualized under an epifluorescence Olympus microscope using 20× objective. Five representative pictures of each section were taken. The percentage of positive cells was calculated and results are represented as mean±SEM.
# [3] = tested on: MDCK non-transformed cells; test: Soft agar-colony formation assay, MDCK; type: cell-based; conditions: 21 days
# Description: Soft agar-colony formation assay was performed on 12-well plates in triplicates at a density of 5×10^3 MDCK and MDCK-Hakai cells/well, or 12×10^3 HT29 cells/well. Cells were seeded in medium with 0.5% low-melting agarose over a layer with 0.75% low-melting agarose (Lonza Rockland, Me., USA). Cells were treated with the indicated inhibitors and DMSO was used as vehicle. Treatment was refreshed every 3 days and, after 21 days for MDCK and MDCK-Hakai cells or 28 days for HT29 cells, number of colonies were quantified. Quantification of five randomly-selected fields of each condition was photographed with a Nikon Eclipse-TI microscope (objective 4×). Experiments were conducted with three triplicates and were repeated three times. Data are represented as mean±SD.
# [4] = molecular target: T1, E3 ubiquitin-ligase Hakai (Mus musculus, UniProt Q9JIY2); test: Hakai-dependent ubiquitination assay in 293T cells transfected with Flag-Hakai, v-Src and HA-ubiquitin; type: cell-based; conditions: 293T cells transfected with Src, treated 36 h
# T1 construct: expressed in transfected cells; host or cells: HEK293T (293) cells, co-transfected with v-Src and HA-ubiquitin, and in A3 also with myc-E-cadherin
# T1 sequence (Q9JIY2 1-491): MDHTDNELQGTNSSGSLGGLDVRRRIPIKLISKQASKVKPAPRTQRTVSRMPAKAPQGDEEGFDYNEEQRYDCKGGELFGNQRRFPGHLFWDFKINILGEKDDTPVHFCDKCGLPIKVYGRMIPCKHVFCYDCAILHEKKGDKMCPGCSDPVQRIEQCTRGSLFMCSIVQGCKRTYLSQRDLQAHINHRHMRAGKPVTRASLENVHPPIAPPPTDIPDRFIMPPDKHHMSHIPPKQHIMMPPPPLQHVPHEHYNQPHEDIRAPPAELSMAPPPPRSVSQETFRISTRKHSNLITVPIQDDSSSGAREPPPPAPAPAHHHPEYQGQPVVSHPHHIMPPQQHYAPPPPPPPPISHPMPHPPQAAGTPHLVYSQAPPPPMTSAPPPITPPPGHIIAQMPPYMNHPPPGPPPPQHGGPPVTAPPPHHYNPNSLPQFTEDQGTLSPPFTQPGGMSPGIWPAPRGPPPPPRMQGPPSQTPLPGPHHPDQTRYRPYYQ
# Description: For ubiquitination assays, 750.000 HEK293T cells were seeded in 6-well cell culture plates and after 24 h were transfected with 0.25 μg Src, 0.75 μg Flag-Hakai, and 0.5 μg HA-ubiquitin with Lipofectamin 2000 (Invitrogen, UK). Six hours after transfection cells were treated with indicated concentrations of Hakin-1, Hakin-5 or the rest of the analogues tested for 36 h. Whole cell extracts were obtained in lysis buffer (20 mM Tris-HCl pH 7.5, 150 mM NaCl and 1% Triton X-100) containing 10 μg/ml leupeptin, 10 μg/ml aprotinin and 1 mM phenylmethanesulphonyl fluoride (PMSF), supplemented with 10 mM N-ethylmaleimide. Cells were harvested and subjected to western blotting using anti-HA antibody to detect ubiquitination.
# [5] = Hakai-MDCK xenograft tumours, 5 mg/kg every 3 days
# [6] = Hakai-MDCK xenograft, 5 mg/kg every 3 days
structure (smiles),measurement,setting,value
"O=C(O)c1ccc(-n2nnnc2SCC(=O)c2ccc([N+](=O)[O-])cc2)cc1 [Hakin-1, 4-(5-{[2-(4-nitrophenyl)-2-oxoethyl]thiol}-1H-tetrazol-1-yl)benzoic acid]","cytotoxicity effect (cell viability, MTT)",[1],important inhibitory response
same,micrometastasis detected in lung (quantitative PCR of HA-tagged Hakai DNA),"[2]; Hakai-MDCK xenograft mice, compared to DMSO treated mice",significant reduction of micrometastasis
same,Cortactin expression (immunohistochemistry),[2]; Hakai-MDCK xenograft tumours,recovered
same,E-cadherin (immunohistochemistry),"[2]; Hakai-MDCK xenograft tumours, in presence or absence of treatment",not detected
same,apoptosis (TUNEL assay),[2]; [5],no effect on apoptosis was detected
same,mitotic-index (H&E),[2]; [5],markedly reduce
same,number of Ki67-positive cells (immunohistochemistry),[2]; [5],markedly reduce
same,number of blood vessels (CD31 angiogenic marker),"[2]; Hakai-MDCK xenograft tumours, vs non-treated tumours",strong reduction on the number of blood vessels
same,xenograft tumour growth,"[2]; Hakai-MDCK xenograft, nude mice, 5 mg/kg every 3 days, vs DMSO",potent effect on inhibiting xenograft tumour growth
same,tumour-cell infiltration in blood vessels (H&E),[2]; [6],no infiltration was detected
same,xenograft tumour cell morphology (H&E),[2]; [6],induction of tumour differentiation and an increase in cytoplasm size
same,"tissue damage (H&E, morphological structure)","[2]; lung and kidney tissues of treated nude mice, 5 mg/kg",no damage was observed
same,N-cadherin expression (immunohistochemistry),"[2]; tumour xenografts, compared to DMSO treated mice",strongly reduced
same,colony formation (soft agar),[3],no colony formation was detected
same,Hakai protein levels,[4],no effect was seen
same,"ubiquitination mediated by Hakai (western blotting, anti-HA)",[4]; DMSO as control,strongly reduces the ubiquitination mediated by Hakai in a doses dependent-manner
